Structures can show the parent of a compound that is named as a salt.
Legend:
[1] = tested on: passive cutaneous anaphylaxis (PCA) in rats; test: 48 hr homologous passive cutaneous anaphylaxis (PCA) in rats; assay type: in vivo, male Wistar rats; conditions: 1 hr prior to challenge with antigen; for inhibition in vivo at 1 mg/kg: Rattus norvegicus, po, read-out: the percent inhibition of PCA in rats
Method: The following compounds were used as the reference compounds. 1.48 hr homologous passive cutaneous anaphylaxis (PCA) in rats a) Preparation of DNP-As and rat anti-DNP-As serum Ascaris extract coupled with 2,4-dinitrophenyl group (DNP-As) was prepared by the method of Koda et al. (Folia pharmacol. japon., 78, 319-334, 1981) and anti-DNP-As containing IgE antibody serum was prepared by the method of Tada and Okumura (J. Immunol., 106, 1019-1025, 1971). […] b) 48 hr homologous passive cutaneous anaphylaxis (PCA) in rats Male Wistar rats weighing 160 to 220 g were sensitized passively by intradermal injection in the back, of 0.05 ml of anti-DNP-As serum, diluted 21-fold with saline. […] After additional thirty minutes, the animals were killed by stunning and the skins were removed. The intensity of the response was evaluated by assaying the amount of dye leaked according to the method of Katayama et al. (Microbiol. Immunol., 22, 89-101, 1978). […] Test compounds were given orally in a dose 1.0 mg/kg 1 hr prior to challenge with antigen. As a control, 5 ml/kg of vehicle (0.5% CMC) alone were given in a similar manner.

[2] = tested on: hexobarbital-induced anesthesia in mice; design: species or system male ddY mice; conditions: mouse, in vivo
From the text: The results of 48 hr homologous passive cutaneous anaphylaxis (PCA) in rats with the monitoring of antiallergic activity and potentiation of hexobarbital-induced anesthesia in mice with the monitoring of central nervous depressive activity are summarized in Table 1. The following compounds were used as the reference compounds.
2. Potentiation of hexobarbital-induced anesthesia in mice
The loss of righting reflex induced by hexobarbital was used as an index of anesthesia. Groups of eight male ddY mice (20-24 hr fasted) weighing 19 to 27 g were treated orally with the test compounds (30 mg/kg) or vehicle. Thirty minutes later, 80 mg/kg of hexobarbital sodium were injected i.p. to the animals and the duration of loss of righting reflex was observed. The percent increase of sleeping time was calculated using the following formula: [formula]

Row | SMILES | inhibition in vivo at 1 mg/kg [1] [%] | the percent increase of hexobarbital-induced anesthesia in mice [2] [%] | the percent inhibition of PCA in rats ([1]; 1 mg/kg, p.o., hydrochloride) [%]
1 | COC(=O)CCCCCN1CCC(OC(c2ccccc2)c2ccc(C)cc2)CC1.Cl (racemic) [Example 1, (±)-Methyl 4-[(4-methylphenyl)phenylmethoxy]-1-piperidinecaproate hydrochloride] | 77 | 16 | –
2 | Cc1ccc(C(OC2CCN(CCCCCC(=O)O)CC2)c2ccccc2)cc1.Cl (racemic) [Example 64, (±)-4-[(4-Methylphenyl)phenylmethoxy]-1-piperidinecaproic acid hydrochloride] | 68 | -8 | –
3 | Cc1ccc(C(OC2CCN(CCC(=O)O)CC2)c2ccccc2)cc1.Cl (racemic) [Example 70, (±)-4-[(4-Methylphenyl)phenylmethoxy]-1-piperidinepropionic acid hydrochloride] | 51 | -2 | –
4 | Cc1ccc(C(OC2CCN(CCCC(=O)O)CC2)c2ccccc2)cc1.Cl (racemic) [Example 71, (±)-4-[(4-Methylphenyl)phenylmethoxy]-1-piperidinebutyric acid hydrochloride] | 65 | 3 | –
5 | Cc1ccc(C(OC2CCN(CCCCC(=O)O)CC2)c2ccccc2)cc1.Cl (racemic) [Example 72, (±)-4-[(4-Methylphenyl)phenylmethoxy]-1-piperidinevaleric acid hydrochloride] | 63 | 12 | –
6 | Cc1ccc(C(OC2CCN(CCCCCCC(=O)O)CC2)c2ccccc2)cc1.Cl (racemic) [Example 73, (±)-4-[(4-Methylphenyl)phenylmethoxy]-1-piperidineheptanoic acid hydrochloride] | 67 | 2 | –
7 | Cc1ccc(C(OC2CCN(CCCCCCCC(=O)O)CC2)c2ccccc2)cc1.Cl (racemic) [Example 74, (±)-4-[(4-Methylphenyl)phenylmethoxy]-1-piperidineoctanoic acid hydrochloride] | 59 | 21 | –
8 | CCc1ccc(C(OC2CCN(CCCCCC(=O)O)CC2)c2ccccc2)cc1.Cl (racemic) [Example 77, (±)-4-[(4-Ethylphenyl)phenylmethoxy]-1-piperidinecaproic acid hydrochloride] | 68 | 24 | –
9 | COc1ccc(C(OC2CCN(CCC(=O)O)CC2)c2ccccc2)cc1.Cl (racemic) [Example 86, (±)-4-[(4-Methoxyphenyl)phenylmethoxy]-1-piperidinepropionic acid hydrochloride] | 60 | 4 | –
10 | COc1ccc(C(OC2CCN(CCCC(=O)O)CC2)c2ccccc2)cc1.Cl (racemic) [Example 87, (±)-4-[(4-Methoxyphenyl)phenylmethoxy]-1-piperidinebutyric acid hydrochloride] | 54 | 18 | –
11 | COc1ccc(C(OC2CCN(CCCCCC(=O)O)CC2)c2ccccc2)cc1.Cl (racemic) [Example 89, (±)-4-[(4-Methoxyphenyl)phenylmethoxy]-1-piperidinecaproic acid hydrochloride] | 71 | 20 | –
12 | Cl.O=C(O)CCCN1CCC(OC(c2ccccc2)c2ccccc2Cl)CC1 (racemic) [Example 112, (±)-4-[(2-Chlorophenyl)phenylmethoxy]-1-piperidinebutyric acid hydrochloride] | 53 | 29 | –
13 | Cl.O=C(O)CCCN1CCC(OC(c2ccccc2)c2ccc(F)cc2)CC1 (racemic) [Example 115, (±)-4-[(4-Fluorophenyl)phenylmethoxy]-1-piperidinebutyric acid hydrochloride] | 73 | 21 | –
14 | Cl.O=C(O)CCCCN1CCC(OC(c2ccccc2)c2ccc(F)cc2)CC1 (racemic) [Example 116, (±)-4-[(4-Fluorophenyl)phenylmethoxy]-1-piperidinevaleric acid hydrochloride] | 83 | 31 | –
15 | COC(=O)CCCCCN1CCC(OC(c2ccccc2)c2ccc(C)cc2)CC1.Cl (single isomer, unassigned; (+)) [Example 62, (+)-Methyl 4-[(4-methylphenyl)phenylmethoxy]-1-piperidinecaproate hydrochloride] | 56 | 29 | –
16 | Cc1ccc(C(OC2CCN(CCCCCC(=O)O)CC2)c2ccccc2)cc1.Cl (single isomer, unassigned; (+)) [Example 125, (+)-4-[(4-Methylphenyl)phenylmethoxy]-1-piperidinecaproic acid hydrochloride] | 55 | 29 | –
17 | Cc1ccc(C(OC2CCN(CCCCCC(=O)O)CC2)c2ccccc2)cc1.Cl (single isomer, unassigned; (-)) [Example 126, (-)-4-[(4-Methylphenyl)phenylmethoxy]-1-piperidinecaproic acid hydrochloride] | – | -1 | 36
18 | Cl.O=C(O)CCN1CCC(OC(c2ccccc2)c2ccccc2)CC1 [Example 65, 4-(Diphenylmethoxy)-1-piperidinepropionic acid hydrochloride] | 62 | 29 | –
19 | Cl.O=C(O)CCCCN1CCC(OC(c2ccc(F)cc2)c2ccc(F)cc2)CC1 [Example 120, 4-[Bis(4-fluorophenyl)methoxy]-1-piperidinevaleric acid hydrochloride] | 64 | -12 | –
20 | CN1CCC(OC(c2ccccc2)c2ccccc2)CC1 [Reference compound A, diphenylpyraline hydrochloride, reference compound] | -1 | 75 | –
21 | CCOC(=O)Oc1ccc(C=CC=CC(=O)NCCN2CCC(OC(c3ccccc3)c3ccccc3)CC2)cc1OC [Reference compound B, N-[2-[4-(diphenylmethoxy)piperidino]ethyl]-5-[4-(ethoxycarbonyloxy)-3-methoxyphenyl]-2,4-pentadienoylamide, reference compound] | 8 | 35 | –

Source: patent US5153207A, “Piperidine derivative, method for preparation thereof, and a pharmaceutical composition comprising the same” (Hokuriku Pharmaceutical Co., Ltd., priority 1989, dated 1992)
